Experimental data reported in the supplement of paper PMC10307832.

Compound: Cc1ccc(NC(=O)c2ccc(CN3CCN(C)CC3)cc2)cc1Nc1nccc(-c2cccnc2)n1 [Imatinib] + N=C(N)NC(=N)NCCc1ccccc1 [Phenformin] (partner 250 µM)
Assay: relative viability (nuclei count vs DMSO), 5 days (fraction); higher = more cells survive
How it was run: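 Each reported value is a median over duplicate plates. It expresses relative viability: treated-well nuclei count divided by vehicle-well nuclei count. Lung cancer cell lines in 1536-well plates were dosed by pin tool a day after seeding, alone with one drug or with a fixed anchor-drug dose plus five library-drug doses (not always all listed) in √10 steps, and nuclei were counted after 5 days.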

Row | Cell Line | relative viability (first compound 0.02 µM) | relative viability (first compound 0.2 µM) | relative viability (first compound 0.6325 µM) | relative viability (first compound 2 µM) | relative viability (first compound 0.06325 µM)
1 | NCI-H727 | 0.653 | 0.876 | 0.522 | 0.522 | –
2 | LOU-NH91 | 0.679 | 0.675 | 0.679 | 0.665 | 0.693
3 | NCI-H1993 | 0.56 | 0.519 | 0.485 | 0.52 | 0.506
4 | NCI-H322M | 0.909 | 0.819 | 0.679 | 0.795 | 0.839
5 | NCI-H2347 | 0.381 | 0.386 | 0.307 | 0.381 | 0.376
6 | NCI-H1437 | 0.267 | 0.361 | 0.308 | 0.283 | 0.326
7 | HCC-44 | 0.252 | 0.222 | 0.196 | 0.192 | 0.22
8 | NCI-H1651 | 0.338 | 0.329 | 0.339 | 0.374 | 0.35
9 | NCI-H1944 | 0.185 | 0.188 | 0.199 | 0.162 | 0.2
10 | COR-L 105 | 0.51 | 0.453 | 0.497 | 0.373 | 0.632
11 | RERF-LC-KJ | 0.49 | 0.432 | 0.407 | 0.428 | 0.472
12 | NCI-H3122 | 0.394 | 0.366 | – | 0.357 | 0.38
13 | LU99A | 0.887 | 0.77 | 0.899 | 0.785 | 0.923
14 | ChaGo-K-1 | 0.425 | 0.505 | 0.426 | 0.432 | 0.485
15 | HOP-62 | 0.77 | 0.858 | 0.613 | 0.66 | –
16 | COR-L23 | 0.469 | 0.496 | 0.419 | 0.422 | 0.541
17 | SK-MES-1 | 0.72 | 0.725 | 0.619 | 0.577 | 0.686
18 | NCI-H2170 | 0.448 | 0.406 | 0.361 | 0.301 | 0.414
19 | LCLC-103H | 0.342 | 0.347 | 0.316 | 0.255 | 0.325
20 | NCI-H1793 | 0.388 | 0.375 | 0.284 | 0.257 | –
21 | NCI-H1975 | 0.446 | 0.407 | 0.425 | 0.357 | 0.43
22 | NCI-H520 | 0.695 | 0.545 | 0.568 | 0.497 | 0.823
23 | NCI-H1915 | 0.38 | 0.387 | 0.377 | 0.371 | –
24 | SK-LU-1 | 0.56 | 0.499 | 0.472 | 0.475 | 0.499

Row | Cell Line | relative viability (first compound 0.02 µM) | relative viability (first compound 0.2 µM) | relative viability (first compound 0.6325 µM) | relative viability (first compound 2 µM) | relative viability (first compound 0.06325 µM)
25 | NCI-H441 | 0.755 | 1.02 | 0.958 | 0.879 | 0.747
26 | NCI-H1650 | 0.499 | 0.329 | 0.388 | 0.385 | 0.473
27 | EPLC-272H | 0.308 | 0.273 | 0.322 | 0.442 | –
28 | EMC-BAC-2 | 0.572 | 0.555 | 0.467 | 0.46 | 0.632
29 | NCI-H460 | 0.621 | 0.557 | 0.443 | 0.478 | 0.555
30 | ABC-1 | 0.252 | 0.224 | 0.305 | 0.187 | –
31 | 201T | 0.433 | 0.469 | 0.435 | 0.437 | –
32 | NCI-H1755 | 0.643 | 0.596 | 0.568 | 0.536 | 0.674
33 | NCI-H1355 | 0.493 | 0.461 | 0.409 | 0.391 | –
34 | HCC-78 | 0.695 | 0.719 | 0.591 | 0.641 | 0.674
35 | EKVX | – | 0.22 | 0.226 | 0.242 | 0.249
36 | BEN | 0.257 | 0.258 | 0.287 | 0.243 | –
37 | HARA | 0.57 | 0.439 | 0.39 | 0.387 | –
38 | HCC-15 | 0.502 | 0.518 | 0.451 | 0.433 | –
39 | SW 900 | 0.57 | 0.821 | 0.578 | 0.499 | 0.474
40 | NCI-H2009 | 0.518 | 0.485 | 0.445 | 0.383 | –
41 | NCI-H23 | 0.863 | 0.768 | 0.764 | 0.731 | 0.84
42 | NCI-H838 | 0.555 | 0.64 | 0.619 | 0.596 | 0.668
43 | NCI-H1395 | 0.472 | 0.438 | 0.471 | 0.447 | 0.4
44 | NCI-H358 | 0.317 | 0.418 | 0.292 | 0.335 | 0.349
45 | NCI-H1666 | 0.534 | 0.592 | 0.663 | 0.551 | 0.613
46 | NCI-H2023 | 0.503 | 0.356 | 0.341 | 0.342 | 0.391
47 | NCI-H1563 | 0.634 | 0.658 | 0.607 | 0.625 | 0.648
48 | NCI-H2087 | 0.478 | 0.478 | 0.548 | 0.535 | –

Row | Cell Line | relative viability (first compound 0.02 µM) | relative viability (first compound 0.2 µM) | relative viability (first compound 0.6325 µM) | relative viability (first compound 2 µM) | relative viability (first compound 0.06325 µM)
49 | NCI-H2405 | 0.366 | 0.341 | 0.329 | 0.333 | –
50 | PC-14 | 0.626 | 0.586 | 0.374 | 0.656 | 0.802
51 | LK-2 | 0.447 | 0.378 | 0.439 | 0.46 | 0.413
52 | HCC-366 | 0.64 | 0.637 | 0.631 | 0.579 | –
53 | LCLC-97TM1 | 0.409 | 0.458 | 0.498 | 0.437 | –
54 | NCI-H596 | 0.73 | 0.816 | 0.693 | 0.834 | 0.663
55 | HCC-827 | 0.432 | 0.475 | 0.37 | 0.403 | 0.481
56 | NCI-H647 | 0.518 | 0.611 | 0.513 | 0.461 | 0.696
57 | LXF-289 | 0.531 | 0.552 | 0.51 | 0.502 | 0.491
58 | NCI-H1734 | 0.382 | 0.431 | 0.368 | 0.357 | 0.389
59 | SW 1573 | 0.325 | 0.361 | 0.352 | 0.335 | 0.365
60 | NCI-H650 | 0.505 | 0.516 | 0.494 | 0.425 | 0.435
61 | UMC-11 | 0.331 | 0.322 | 0.332 | 0.294 | 0.327
62 | H3255 | 0.326 | 0.378 | 0.335 | 0.376 | 0.377
63 | NCI-H2126 | 0.514 | 0.57 | – | 0.501 | –
64 | NCI-H2085 | 0.867 | 0.748 | 0.752 | 0.704 | 0.694
65 | NCI-H2342 | 0.633 | 0.587 | 0.573 | 0.561 | 0.57
66 | A-427 | 0.327 | 0.316 | 0.27 | 0.237 | –
67 | NCI-H661 | 0.245 | 0.259 | 0.263 | 0.258 | 0.255
68 | LC-2-ad | 0.626 | – | 0.603 | 0.557 | 0.603
69 | PC-3 [JPC-3] | 0.474 | 0.485 | 0.454 | 0.414 | –
70 | NCI-H2228 | 0.335 | 0.268 | 0.277 | 0.272 | –
71 | CAL-12T | 0.558 | 0.674 | 0.618 | 0.555 | –
72 | NCI-H1792 | 0.262 | 0.233 | 0.235 | 0.35 | 0.237
